For the assay, the system named is ABCA1 mRNA. Description: ABCA1 mRNA induction in THP-1 cells, QuantiGene branched DNA assay. It counts as cell-based. The note with it: 10 μM test compound, 18-20 hours; for fold induction at 10 µM: Homo sapiens, read-out: ABCA1 Induction Fold Increase over DMSO Vehicle. Summed up: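 THP-1 cells, grown to subconfluence, treated with compounds at 10 and 3 μM in DMEM/BSA for 18–20 h. Lysates hybridized with ABCA1-specific probe 16–18 h at 53 °C; QuantiGene branched DNA luminescence gives fold increase over DMSO.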

Here are results for four molecules from patent US7432276B2, “ABCA1 elevating compounds” (CV Therapeutics, Inc., priority 2005, dated 2008).

As for `COc1ccc(Br)c2c1OCC1C2Nc2ccc(-c3cnco3)cc2C1(C)C` (stereo not shown) [Number 79, 1-bromo-4-methoxy-7,7-dimethyl-9-(1,3-oxazol-5-yl)-7,12,12a,6a-tetrahydrochromano[4,3-b]quinoline], the “ABCA1 Induction Fold Increase over DMSO Vehicle” value was 4.1 FOLD INCREASE.

Take `COc1cccc2c1[C@@H]1[C@H](CO2)C(C)(C)c2ccccc2N1CC(=O)O` [Number 154, 2-((6aR,12aS)-6a,7-dihydro-1-methoxy-7,7-dimethyl-6H-chromeno[4,3-b]quinolin-12(12aH)-yl)acetic acid]: the fold induction at 10 µM turned out to be 9.4.

On to `COC(=O)c1ccc2c(c1)C(C)(C)[C@H]1COc3cccc(OC)c3[C@H]1N2C` [Number 153, (6aR,12aS)-methyl 6a,7,12,12a-tetrahydro-1-methoxy-7,7,12-trimethyl-6H-chromeno[4,3-b]quinoline-9-carboxylate], for which the fold induction at 10 µM worked out at 7.4.

In the case of `COc1cccc2c1[C@H]1Nc3ccc(-c4ccc(F)cc4)cc3C(C)(C)[C@H]1CO2` [Number 109, (12aS,6aR)-9-(4-fluorophenyl)-1-methoxy-7,7-dimethyl-7,12,12a,6a-tetrahydrochromano[4,3-b]quinoline], the “ABCA1 Induction Fold Increase over DMSO Vehicle” value is 4.1 FOLD INCREASE.
